Entries after “also recorded” stand apart in the source; their conditions may differ.
How the values were obtained:
[1] = system: Lewis Lung Carcinoma (LLC) tumors; test: Bilateral flank LLC tumor growth delay in C57Bl6 mice; format: in vivo, mouse
Source text: (§1) For in vitro studies drug was solubilized in dimethyl sulfoxide (DMSO, 0.125%) prior to use. For mouse studies drug was solubilized in a co-solvent formulation: propylene glycol (40%); ethanol (10%); benzyl alcohol (2%); benzoic acid (2%); sodium benzoate (2%).
For subcutaneous xenograft tumor growth delay experiments, black 6 mice (C57Bl6) were purchased (Charles River Laboratories) and housed at University of Cincinnati LAMS. Purchased mice were allowed to accommodate for a week prior to experiment. Mice were housed in pathogen-free rooms and clinical health evaluated weekly by veterinary staff of the University of Cincinnati LAMS. All animal studies were conducted in accordance with approval of a University of Cincinnati IACUC.
LLC1 cells (a million) grown in RPMI medium were washed in cold PBS and mixed with Matrigel 25%, then injected subcutaneously into left and right flanks above the hind limbs of 6 to 8-week-old mice. When subcutaneous tumors were palpable (˜100 mm^3 in size) the following treatments groups were initiated: (1) vehicle (2) drug. In mice receiving vehicle alone, the vehicle was injected i.p for 7 days. In mice receiving drug, drug (2.5 mg/kg body weight) was injected i.p. for 7 days. Following end of treatment, tumor volume were taken for growth delay studies. Mouse tumors were measured by Vernier calipers. Tumor volume was calculated using the formula: 4/3π×(l×h2), where: l and h are radii of the tumor taken perpendicular to each other. Tumor size was measured three times a week using a caliper.

[2] = system: Lewis Lung Carcinoma cells; test: Mitochondrial depolarization, TMRE binding by FACS; format: cell-based, mouse; conditions: for TMRE binding (depolarization): Lewis Lung Carcinoma cells, FACS, within 15 minutes of incubation; for shift in electric charge distribution / depolarization of cancer cells: different/disparate cancer cell types
[3] = system: cancer cell lines A375, H1792, LN18, LLC; test: In vitro viability assay (Cell Titer 96 Aqueous One), cancer cell lines; format: cell-based, human, mouse; conditions: for cytotoxicity of NOR-variant relative to non-NOR-variant: SRE-III-35 vs TA-IV-74, TA-II-59 vs TA-II-73
Protocol: (§2) Cell lines tested were purchased from the American Type Culture Collection (ATCC). Cells were maintained in Dulbecco's Modified Eagle's Medium (DMEM) (Corning) or Roswell Park Memorial Institute (RPMI) 1640 Medium (Gibco). Media for lines was supplemented with 10% (v/v) Fetal Bovine Serum (FBS) (Corning) and 100 U/mL penicillin/streptomycin (Sigma). Lines were grown at 37° C. with 5% (v/v) CO2. Cells were passaged twice a week at 1:10 ratio and reached 80 to 90% confluency between 72 and 96 hours.
as §1
(§3) For cell proliferation viability studies, cells were assayed using the Cell Titer 96® Aqueous One Solution Assay (Promega). IC50 values were determined using the ‘[Inhibitor] versus normalized response’ nonlinear regression function and the log of inhibitor concentration in Prism 8 software (version 8.3.0 for MacOS).

[4] = system: H1792 cells; test: In vitro viability assay (Cell Titer 96 Aqueous One), H1792; format: cell-based, human; conditions: H1792 cells (FIG. 6, 7A, 7B)
Protocol: as §2, §1, §3

[5] = system: NIX; test: Western blot of NIX in H1792 cells; format: cell-based, human
Protocol: (§4) DNA was sheared by sonication. Lysates were kept on ice for 30 min, centrifuged 10 min (13,500×g, 4° C.), and protein concentration of supernatant determined by a Bradford assay (Protein Assay Dye Reagent, Bio-Rad). Lysates were mixed 1:1 with 2× Laemmli sample buffer containing β-mercaptoethanol and heated 5 min at 95° C. Protein was resolved by SDS-PAGE using 4-20% gradient polyacrylamide gels (Bio-Rad), then transferred to nitrocellulose membranes (Bio-Rad) for 2 hr at 100 V in tris-glycine transfer buffer containing 20% methanol. Membranes were blocked at room-temperature in 5% 1×TBST blocking buffer (TBS with 0.1% Tween-20 and 5% non-fat dry milk) for 1 hr with gentle agitation, followed by overnight incubation with primary Ab and gentle shaking at 4° C. The primary Abs were diluted as follows: GAPDH (1:1000, Cell Signaling Technology); GABARAP (1:1000, Cell Signaling Technology); NIX (1:1000, Cell Signaling Technology). Immunodetection was performed with anti-rabbit horseradish-peroxidase-conjugated secondary antibody (1:10000, Cell Signaling Technology). Post-primary Ab incubation, membranes were washed (3× for 10 min in TBST at room-temperature), probed with rabbit HRP tagged secondary antibody (1:3000, Cell Signaling Technology), and processed for chemiluminescence detection using ECL kit (Thermo Scientific). Chemiluminescence images were acquired using ChemiDoc Touch Imaging System (Bio-Rad).

[6] = system: GABAA receptors; test: Single-cell patch-clamp electrophysiology in H1792 cells; format: cell-based, human; conditions: 1 μM GABA + 4 μM QH-II-066
Source text: Recording solutions were purchased from Nanion Technologies.

[7] = system: LC3B- and NIX-positive puncta in H1792 cells; test: Confocal immunofluorescence of autophagosome puncta; format: cell-based, human; conditions: H1792, relative to DMSO control
Protocol: Cells were seeded on sterile glass cover slips and grown overnight at 37° C. Cells were then rinsed with cold PBS and fixed in 4% paraformaldehyde (30 min, room temperature). Fixed cells were rinsed in PBS (3×5 min at room-temperature), and permeabilized (15 min in PBS containing 0.1% Triton X-100). Cells were washed in PBS (3× for 5 min at room-temperature) and incubated with blocking buffer (PBS containing 0.3% Triton X-100 and 3% BSA) for 1 hr at room-temperature with gentle shaking. Blocking solution was aspirated, cells washed with ice-cold PBS, and incubated overnight with primary Ab (LC3B or NIX) diluted 1:200 in sterile 0.5% BSA in PBS at 4° C. on the cover slip placed on a glass slide kept inside a humidified 10 cm dish with gentle shaking 60. Cells were washed (3× for 5 min in PBS) and incubated with fluorophore conjugated secondary Ab goat anti-rabbit Alexa Fluor 594 (Abcam) in 2% normal donkey serum at room-temperature for 1 hr in dark. Cells were washed (3× for 5 min in PBS) under low light and mounted on a glass slide in […] Antifade Mounting Medium with DAPI (Vector Laboratories). The following Abs were used (1:200 dilution): rabbit anti-human LC3B (Cell Signaling Technology) and rabbit NIX (Cell Signaling Technology). Slides were imaged on a Zeiss LSM 710 laser scanning confocal microscope and analyzed using NIH Fiji ImageJ2 (version 1.53c).

[8] = system: GABARAP; test: Western blot of GABARAP in H1792 cells; format: cell-based, human
Protocol: as §4, with “Chemiluminescence images were acquired using ChemiDoc Touch Imaging System (Bio-Rad).” left out

[9] = 2.5 mg/kg i.p. for seven consecutive days

`C#Cc1ccc2c(c1)C(c1ccccc1C)=NCC(=O)N2` [TA-II-59, 7-ethynyl-5-(o-tolyl)-1,3-dihydro-2H-benzo[e][1,4]diazepin-2-one] was tested, and the “tumor control relative to vehicle mice” value [1, 9] was “significant tumor control”, the “TMRE binding (depolarization)” value [2] was “reduced TMRE binding” and the “shift in electric charge distribution / depolarization of cancer cells” value [2] was “depolarizing”. The “cytotoxicity to cancer cells” value ([3]; LN18, H1792, A375, LLC1) was “most potent”, the “cytotoxicity of NOR-variant relative to non-NOR-variant” value [3] was 2 fold and the “potency relative to QH-II-066” value ([3]; cytotoxicity) was “an order of magnitude more potent”.

In the case of `O=C1CN=C(c2ccccc2)c2cc(C3CC3)ccc2N1` [SRE-III-35, 7-cyclopropyl-5-phenyl-1,3-dihydro-2H-benzo[e][1,4]diazepin-2-one], the “tumor control relative to vehicle mice” value [1, 9] is reported as “significant tumor control”, the “TMRE binding (depolarization)” value [2] is reported as “reduced TMRE binding” and the “shift in electric charge distribution / depolarization of cancer cells” value [2] is reported as “depolarizing”. The “cytotoxicity of NOR-variant relative to non-NOR-variant” value [3] was 2 fold and the “potency relative to TA-II-59” value ([3]; cytotoxicity) was “equally as potent”.

For `C#Cc1ccc2c(c1)C(c1ccccc1F)=NC(O)C(=O)N2` (stereo not drawn) [MYM-I-59, 7-ethynyl-5-(2-fluorophenyl)-3-hydroxy-1,3-dihydro-2H-benzo[e][1,4]diazepin-2-one], the “cytotoxicity (activity)” value [4] was “poorly or inactive”.

`C#Cc1ccc2c(c1)C(c1ccccc1F)=NCC(=S)N2C` [TA-III-50, 7-ethynyl-5-(2-fluorophenyl)-1-methyl-1,3-dihydro-2H-benzo[e][1,4]diazepine-2-thione] was tested, and the “cytotoxicity (activity)” value [4] was “poorly or inactive”.

With `C#Cc1cc(C#C)c2c(c1)C(c1ccccc1)=NCC(=O)N2C` [TA-III-62, 7,9-diethynyl-1-methyl-5-phenyl-1,3-dihydro-2H-benzo[e][1,4]diazepin-2-one] the “cytotoxicity (activity)” value [4] was “poorly or inactive”.

With `C#Cc1ccc2c(c1)C(c1ccccc1)=NCC(=S)N2C` [TA-III-52, 7-ethynyl-1-methyl-5-phenyl-1,3-dihydro-2H-benzo[e][1,4]diazepine-2-thione] the “cytotoxicity (activity)” value [4] was “poorly or inactive”.

For `O=C1CN=C(c2ccccc2F)c2cc(C3CC3)ccc2N1` [SRE-III-43, 7-cyclopropyl-5-(2-fluorophenyl)-1,3-dihydro-2H-benzo[e][1,4]diazepin-2-one], the “TMRE binding (depolarization)” value [2] was “reduced TMRE binding” and the “shift in electric charge distribution / depolarization of cancer cells” value [2] was “depolarizing”.

`CN1C(=O)CN=C(c2ccccc2)c2cc(C3CC3)ccc21` [TA-IV-74, 7-cyclopropyl-1-methyl-5-phenyl-1,3-dihydro-2H-benzo[e][1,4]diazepin-2-one] was tested, and the “effect compared with the other compounds tested” value [1, 9] was “most significant effect; also recorded: most effective”, the “tumor control relative to vehicle mice” value [1, 9] was “significant tumor control” and the tumor volume ([1]; at 25 days, 2.5 mg/kg i.p. for seven days) was “no increase in tumor volume”.

With `C#Cc1ccc2c(c1)C(c1ccccc1)=NC(O)C(=O)N2C` (stereo not drawn) [TA-III-70, 7-ethynyl-3-hydroxy-1-methyl-5-phenyl-1,3-dihydro-2H-benzo[e][1,4]diazepin-2-one] the “cytotoxicity (activity)” value [4] was “poorly or inactive”.

In the case of `O=C1CN=C(c2ccccc2)c2cc(Br)cc(Br)c2N1` [TA-III-56, 7,9-dibromo-5-phenyl-1,3-dihydro-2H-benzo[e][1,4]diazepin-2-one], the “cytotoxicity (activity)” value [4] is reported as “poorly or inactive”.

`C#Cc1ccc2c(c1)C(c1ccccc1)=NCC(=O)N2C` [QH-II-066] was tested, and the “dose dependence of induced NIX dimerization” value ([5]; H1792) was “dose-dependent”, the NIX dimerization ([5]; H1792, 72 hours) was “dimerize” and the NIX protein level ([5]; H1792, 72 hours post-treatment) was “pronounced accumulation”. For the same molecule, the “current response to GABA plus compound over GABA alone” value [6] was “enhanced response; also recorded: enhances the current signal”, the LC3B-positive puncta [7] was “increased puncta” and the NIX-positive puncta [7] was “increased puncta”. The GABARAP dimerization ([8]; H1792, 72 hours) was “dimerize” and the GABARAP protein level ([8]; H1792, 72 hours post-treatment) was “pronounced accumulation”.

— US20250313537A1, “BENZ[…] AND METHODS OF USE IN TREATING CANCER” (University of Cincinnati, priority 2022, published 2025)
